Source: BigSolDB 2.1

COc1cc(NS(=O)(=O)c2ccc(N)cc2)ncn1
Details | solubility (mole fraction)
in acetone, 299.05 K | 0.00789
in acetone, 303.3 K | 0.00849
in acetone, 308.2 K | 0.00935
in acetone, 313.15 K | 0.0105
in acetone, 318.05 K | 0.0112
in acetone, 323.05 K | 0.0124
in ethanol, 297.95 K | 0.000496
in ethanol, 310.95 K | 0.000859
in ethanol, 317.65 K | 0.00109
in ethanol, 327.95 K | 0.00161
in ethanol, 337.85 K | 0.00243
in ethanol, 347.15 K | 0.00356
in ethyl acetate, 300.65 K | 0.00114
in ethyl acetate, 308.2 K | 0.00131
in ethyl acetate, 316.05 K | 0.00146
in ethyl acetate, 324 K | 0.00169
in ethyl acetate, 331.95 K | 0.00184
in ethyl acetate, 339.8 K | 0.00205
in methanol, 294.55 K | 0.000735
in methanol, 303.15 K | 0.000951
in methanol, 309.95 K | 0.00117
in methanol, 317.75 K | 0.00164
in methanol, 325.85 K | 0.00221
in methanol, 332.65 K | 0.00284
in n-butanol, 305.2 K | 0.000117
in n-butanol, 318.05 K | 0.000288
in n-butanol, 327.85 K | 0.000607
in n-butanol, 339.85 K | 0.00121
in n-butanol, 352.55 K | 0.0029
in n-butanol, 362.15 K | 0.00479
in n-propanol, 300.25 K | 0.000233
in n-propanol, 308.15 K | 0.00037
in n-propanol, 318.05 K | 0.000598
in n-propanol, 327.95 K | 0.00102
in n-propanol, 342.75 K | 0.00198
in n-propanol, 352.45 K | 0.00353
in n-propanol, 361.85 K | 0.00556
